From patent US11452731B2, “Method of treating and preventing loss of cognition” (ENDORECHERCHE, INC., priority 2009, dated 2022)
Marks after values point to notes of the source that are not given here.

Columns and labels:
[1] = Uterine and vaginal weight in ovariectomized BALB/c mice treated orally for 9 days with or without estrone (Example 3); type: in vivo; settings: for inhibition of estrone-stimulated uterine weight / inhibition of vaginal weight (estrone-stimulated): OVX mice + estrone; for stimulation of uterine weight (estrogenic effect) / stimulation of vaginal weight (estrogenic effect): OVX mice, absence of estrone, 10 μg daily (no-effect statements: 1 μg and 10 μg)
Experimental: Female BALB/c mice (BALB/cAnNCrlBR) weighing 18-20 g were obtained from Charles-River, Inc. (St-Constant, Quebec, Canada) and housed 5 per cage in a temperature (23±1° C.)- and light (12 h light/day, lights on at 7:15)-controlled environment. The mice were fed rodent chow and tap water ad libitum. The animals were ovariectomized (OVX) under Isoflurane anesthesia via bilateral flank incisions and randomly assigned to groups of 10 animals. Ten mice were kept intact as controls.
In the second experiment (Table 6), TSE 424 was administered orally by gavage once daily at doses of 1, 3, 10 or 30 μg/animal for 9 days, starting 2 days after ovariectomy. In both experiments, to evaluate the antiestrogenic activity, treatment with estrone (E1, […], s.c. injection, twice daily) was started 5 days post-ovariectomy and was administered for a 6 day-period. Compounds were dissolved in ethanol (4% final concentration) and administered in 0.4% methylcellulose. Mice in the intact and OVX control groups received the vehicle alone (4% ETOH-0.4% methylcellulose) during the 9-day period. The animals were killed by exsanguination at the abdominal aorta on the 11th morning following ovariectomy. The uteri and vagina were rapidly dissected, weighed, and kept in 10% buffered formalin for further histologic examination.

[2] = Endometrial epithelium thickness in OVX nude mice after 161 days of antiestrogen (Example 8); type: in vivo; settings: for inhibition of the stimulatory effect of estrone on epithelial height: 50 μg daily oral, estrone stimulation; for height of uterine epithelial cells, % of the OVX control group value: 200 μg daily, absence of estrone
Text: The 17 groups included two control groups (OVX and OVX+Estrone), seven groups supplemented with an estrone implant and treated with an antiestrogen and eight other groups that received an antiestrogen alone. The estrone implants were then removed from the animals in the ovariectomized control group (OVX) and in groups that were to receive the antiestrogen alone. […] Tamoxifen was purchased from […]) while toremifene citrate was purchased from Orion (Espoo, Finland). […] The antiestrogen suspensions at the appropriate concentration were prepared each month, stored at 4° C. and used under constant agitation. Powder stock were hermetically stored at 4° C. […] After 161 days of treatment, the remaining animals were anesthetized with isoflurane and killed by exsanguination. […] The uteri were prepared to evaluate endometrial thickness by image analysis performed with Image Pro-Plus (Media Cybernetics, Maryland, USA). […] Hematoxylin- and eosin-stained sections of mice uteri were analyzed. […] Mean epithelial cell height was measured in all animals of each group.

[3] = test system: ZR-75-1 human breast cancer xenografts; experiment: Growth and response of human ZR-75-1 breast tumors in OVX nude mice, 7 antiestrogens for 161 days with or without estrone (Example 8); type: in vivo; settings: for increase of average tumor size over baseline (agonistic effect) / tumors in the progression category, % / tumors in the progression category, number of total: absence of estrone, 200 μg daily; for increase of average tumor size over baseline (agonistic effect) / progressing tumors, % of tumors / progressing tumors, number of total / tumors in the progression category, % / tumors in the progression category, number of total: 161 days; for average tumor size above pretreatment values: estrone-stimulated, 50 μg oral daily, 23 weeks; for progressing tumors, % of tumors / progressing tumors, number of total: estrone-supplemented, 50 μg daily
Experimental: ZR-75-1 human breast cancer cells were obtained from the American Type Culture Collection (Rockville, Md.) and cultured in phenol red-free RPMI-1640 medium. […] (Saint-Constant, Québec, Canada). The mice (5 per cage) were housed in vinyl cages equipped with air filter lids, which were kept in laminar airflow hoods and maintained under pathogen-limiting conditions. The photoperiod was 12 hours of light and 12 hours of darkness (lights on at 07:15). Cages, bedding and food (Agway Pro-Lab R-M-H Diet #4018) were autoclaved before use. Water was autoclaved and provided ad libitum. Bilateral ovariectomy was performed under isoflurane-induced anesthesia. […] Randomization and treatments were started one week later. […] The estrone implants were then removed from the animals in the ovariectomized control group (OVX) and in groups that were to receive the antiestrogen alone. […] Tamoxifen was purchased from […]) while toremifene citrate was purchased from Orion (Espoo, Finland). […] The antiestrogen suspensions at the appropriate concentration were prepared each month, stored at 4° C. and used under constant agitation. Powder stock were hermetically stored at 4° C. […] Two perpendicular diameters were recorded and tumor area (mm2) was calculated using the formula: […] Tumor response was assessed at the end of the study or at death of each animal, if it occurred during the course of the experiment. In this case, only data of mice that survived for at least half of the study ([…]) were used in the tumor response analysis.

[4] = 3-month treatment of ovariectomized rats: lumbar spine BMD, total body fat, serum cholesterol, ALP (Example 4, experiment 1); type: in vivo, rat; settings: OVX rats, 3 months
Experimental: Ten to twelve week-old female Sprague-Dawley rats (Crl:CD(SD)Br) (Charles River Laboratory, St-Constant, Canada) weighing approximately 220-270 g at start of treatment were used. The animals were acclimatized to the environmental conditions (temperature: 22±3° C.; humidity: 50±20%; 12-h light-12-h dark cycles, lights on at 07:15 h) for at least 1 week before starting the experiments. The animals were housed individually and were allowed free access to tap water and a pelleted certified rodent feed (Lab Diet 5002, Ralston Purina, St-Louis, Mo.). Experiments were conducted in an animal facility approved by the Canadian Council on Animal Care (CCAC) and the Association for Assessment and Accreditation of Laboratory Animal Care (AAALAC) in accordance with the CCAC Guide for Care and Use of Experimental Animals.
On day 1 of the study, the animals of the appropriate groups were bilaterally ovariectomized (OVX) under isoflurane anesthesia. The DHEA was applied topically on the dorsal skin as a solution in 50% ethanol-50% propylene glycol while the other tested compounds were administered as suspension in 0.4% methylcellulose by oral gavage. Treatments were initiated on day 2 of the study and were performed once daily during 3 months.
After 3 months (experiment 1) or 26 weeks (experiment 2) of treatment, individual rats under Isoflurane anesthesia had their whole body skeleton and lumbar spine scanned using dual energy x-ray absorptiometry (DEXA; QDR 4500A, Hologic, Waltham, Mass.) and a Regional High Resolution Scan software. The bone mineral density (BMD) of the lumbar spine (vertebrae L2 to L4) and the total body composition (fat percentage) were determined.
After 3 months (experiment 1) or 26 weeks (experiment 2) of treatment, blood samples were collected at the jugular vein from overnight fasted animals (under Isoflurane anesthesia). Samples were processed for serum preparation and frozen at −80° C. until assay. Serum cholesterol levels and alkaline phospatase activity (ALP) were determined using the Boehringer Mannheim Diagnostic Hitachi 911 Analyzer (Boehringer Mannheim Diagnostic Laboratory Systems).

human Ishikawa cells = experiment: Alkaline phosphatase activity in human endometrial adenocarcinoma Ishikawa cells (Example 6); settings: for IC50 / Emax: Homo sapiens, Ishikawa, 120 h; for IC50: read-out: Inhibition of 1 nM E2-induced stimulation of alkaline phosphatase IC50; for Emax: read-out: Maximal stimulation of alkaline phosphatase % of 1 nM E2 stimulation; for Maximal inhibition of 1 nM E2-induced stimulation of alkaline phosphatase: Ishikawa cells, 5-day incubation
[5] = OVX + E1, antiestrogen 50 μg daily
[6] = OVX without E1, antiestrogen 200 μg daily
[7] = E2 1 mg/kg, EM-652.HCl 2.5 mg/kg, DHEA 80 mg/kg

Row | IC50 (human Ishikawa cells) [nM] | Compound | inhibition of the stimulatory effect of estrone on epithelial height [2] [%] | height of uterine epithelial cells, % of the OVX control group value [2] [%] | ENDOMETRIAL EPITHELIUM THICKNESS (μm) ± SEM [2, 5] | ENDOMETRIAL EPITHELIUM THICKNESS (μm) ± SEM [2, 6] | increase of average tumor size over baseline (agonistic effect) [3] | average tumor size above pretreatment values [3] [%] | progressing tumors, % of tumors [3] [%] | progressing tumors, number of total [3] | Emax (human Ishikawa cells) [%] | Maximal inhibition of 1 nM E2-induced stimulation of alkaline phosphatase (human Ishikawa cells) | also measured
1 |  | Oc1ccc2c(c1)CC[C@@H](c1ccccc1)[C@H]2c1ccc(OCCN2CCCC2)cc1 (single isomer, unassigned) [inactive enantiomer of lasofoxifene] |  |  |  |  |  |  |  |  |  |  | inhibition of estrone-stimulated uterine weight ([1]; any dose used (1, 3, 10 μg)): no inhibitory effect; inhibition of vaginal weight (estrone-stimulated) ([1]; any dose used (1, 3, 10 μg)): no inhibitory effect; stimulation of uterine weight (estrogenic effect) [1]: no stimulatory effect; stimulation of vaginal weight (estrogenic effect) [1]: no stimulatory effect
2 |  | CC/C(=C(/c1ccc(OCCN(C)C)cc1)c1cccc(O)c1)c1ccccc1 [Droloxifene, (E)-3-[1-[4-[2-(Dimethylamino)ethoxy]phenyl]-2-phenyl-1-butenyl] phenol] | 17 | 101 | 36.71^b,d ± 0.12 μm | 18.50 ± 0.07 μm | did not significantly change | 478 | 100 | 23 of 23 |  |  | 
3 |  | C[C@]12CC[C@@H]3c4ccc(O)cc4CC[C@H]3[C@@H]1CC[C@@H]2O [E2, 17β-estradiol] |  |  |  |  |  |  |  |  |  |  | ALP (serum alkaline phosphatase activity) [4]: 59 ± 4 IU/L; CHOLESTEROL (serum) [4]: 1.37 ± 0.18 mmol/L; TOTAL FAT [4]: 19.5 ± 2.5 %; LUMBAR SPINE BMD [4, 7]: 0.2457 ± 0.0049 g/cm^2; LUMBAR SPINE Prevention of Bone Loss [4, 7]: 98%
4 |  | CC/C(=C(\c1ccc(I)cc1)c1ccc(OCCN2CCCC2)cc1)c1ccccc1 [Idoxifene, (E)-1-[2-[4-[1-(4-Iodophenyl)-2-phenyl-1-butenyl]phenoxy]ethyl]pyrrolidine] | 50 | 176 | 29.35^b,d ± 0.05 μm | 32.14^b,d ± 0.05 μm | 125% | 86 | 71 | 20 of 28 |  |  | tumors in the progression category, % [3]: 33%; tumors in the progression category, number of total [3]: 8 of 24
5 | 1.87 ± 0.07 | COc1ccc(-c2sc3cc(O)ccc3c2Oc2ccc(OCCN3CCCCC3)cc2)cc1.Cl [LY 353381, 6-hydroxy-3-[4-[2-(1-piperidinyl)ethoxy]phenoxyl]-2-(4-methoxyphenyl) benzo [b] thiophene hydrochloride] |  |  |  |  |  |  |  |  | 15.5 ± 0.25 | 90.25 ± 0.127 (2) | 
6 | 72.1 ± 7.6 | CN(C)CCOc1ccc(/C(=C(/CCCl)c2ccccc2)c2ccc(O)cc2)cc1 [OH-Toremifene, (Z)-(2)-2-[4-(4-chloro-1-(4-hydroxyphenyl)-2-phenyl-1-butenyl)phenoxy]-N,N-dimethylethanamine] |  |  |  |  |  |  |  |  | 29.6 ± 2.1 | 75.73 ± 3.52 (3) | 
7 | 3.39 ± 0.9 | Cl.O=C(c1ccc(OCCN2CCCCC2)cc1)c1c(-c2ccc(O)cc2)sc2cc(O)ccc12 [Raloxifene, [2-(4-hydroxyphenyl)-6-hydroxybenzo[b]thien-3-yl] [4-[2-(1-piperidinyl)ethoxy]phenyl]-methanone hydrochloride] | 26 | 122 | 34.72^b,d ± 0.06 μm | 22.33^a ± 0.05 μm | did not significantly change | 191 | 81 | 21 of 26 | 12.8 ± 1.7 | 94.31 ± 1.74 (5) | inhibition of estrone-stimulated uterine weight ([1]; oral 9 days, 1 μg daily): 6%; inhibition of estrone-stimulated uterine weight ([1]; oral 9 days, 3 μg daily): 14%; inhibition of estrone-stimulated uterine weight ([1]; oral 9 days, 10 μg daily): 43%; inhibition of vaginal weight (estrone-stimulated) ([1]; oral 9 days, 10 μg daily): 24%; stimulation of uterine weight (estrogenic effect) [1]: 85%; stimulation of vaginal weight (estrogenic effect) [1]: 56%
8 |  | CN(C)CCOc1ccc(/C(=C(/CCCl)c2ccccc2)c2ccccc2)cc1 [Toremifene, (Z)-2-[4-(4-Chloro-1,2-diphenyl-1-butenyl)phenoxy]-N,N-dimethylethanamine] | 41 | 135 | 31.47^b,d ± 0.04 μm | 24.75^b,c ± 0.04 μm | 86% | 230 | 89 | 25 of 28 |  |  | tumors in the progression category, % [3]: 21%; tumors in the progression category, number of total [3]: 6 of 28
